In patent publication US20220315968A1, “PEPTIDES AND METHODS FOR THE CARBON-CARBON BOND FORMATION” (Max-Planck-Gesellschaft zur Förderung der Wissenschaften …, priority 2019, published 2022):

Key:
HACLHs = molecular target: T1, HACLHs (Homo sapiens, UniProt Q9UJ83); assay: Aldehyde and ketone screen with HACLHs (carboligation with formyl-CoA, LC-MS of CoA esters); format: biochemical; conditions: 10 mM aldehyde, 1 mM formyl-CoA, 5 μM enzyme, 1 h, relative to the comparison of OXC and HACL, n.d. = product not detected
T1 construct: His-tag (from vector pET-16b); made in house; host or cells: E. coli ArcticExpress (DE3)
T1 sequence (Q9UJ83 whole entry): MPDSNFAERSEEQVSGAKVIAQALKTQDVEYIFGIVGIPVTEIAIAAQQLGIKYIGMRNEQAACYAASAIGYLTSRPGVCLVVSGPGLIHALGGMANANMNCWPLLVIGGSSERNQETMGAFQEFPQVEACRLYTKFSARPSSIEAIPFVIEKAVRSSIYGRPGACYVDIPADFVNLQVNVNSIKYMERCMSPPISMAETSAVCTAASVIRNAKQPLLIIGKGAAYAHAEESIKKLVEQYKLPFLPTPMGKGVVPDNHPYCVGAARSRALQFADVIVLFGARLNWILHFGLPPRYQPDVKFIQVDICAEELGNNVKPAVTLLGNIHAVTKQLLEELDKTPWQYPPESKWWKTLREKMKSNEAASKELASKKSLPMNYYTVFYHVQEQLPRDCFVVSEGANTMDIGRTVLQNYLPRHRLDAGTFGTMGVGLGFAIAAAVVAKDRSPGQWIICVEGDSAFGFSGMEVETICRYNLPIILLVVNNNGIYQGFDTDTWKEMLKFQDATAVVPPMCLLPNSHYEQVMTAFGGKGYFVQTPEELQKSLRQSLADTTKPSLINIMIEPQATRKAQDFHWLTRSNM
Procedure: Samples were diluted 1:10 in H2O. […] Standard injection volume was 1 μl.
0.5 mM ADP, 0.15 mM ThDP.

OXCMe = OXCMe aldehyde and ketone screen (carboligation with formyl-CoA, LC-MS of CoA esters); conditions: 10 mM aldehyde, 1 mM formyl-CoA, 5 μM enzyme, 1 h, relative to the comparison of OXC and HACL, n.d. = product not detected
Procedure: Samples were diluted 1:10 in H2O. UPLC-high resolution MS of CoA esters was performed as described previously.^[5] CoA esters were analyzed using an Agilent 6550 iFunnel Q-TOF LC-MS system equipped with an electrospray ionization source set to positive ionization mode. Compounds were separated on a RP-18 column (50 mm×2.1 mm, particle size 1.7 μm, Kinetex EVO C18, Phenomenex) using a mobile phase system comprised of 50 mM ammonium formate pH 8.1 (A) and methanol (B). Chromatographic separation was carried out using the following gradient condition at a flow rate of 250 μl/min: 0 min 2.5% B; 2.5 min 2.5% B; 8 min 23% B; 10 min 80% B; 11 min 80%; 12 min 2.5% B; 12.5 min 0% B. The column oven was set to 40° C. and autosampler was maintained at 10° C. Standard injection volume was 1 μl. Capillary voltage was set at 3.5 kV and nitrogen gas was used as nebulizing (20 psig), drying (13 l/min, 225° C.) and sheath gas (12 l/min, 400° C.). […] The scan range for MS and MS/MS data is 100-1000 m/z and 50-1000 m/z respectively. Collision energy used for MS/MS fragmentation was 35 eV.
Unless noted otherwise, all LC-MS assays were carried out at 30° C. in reaction buffer consisting of 50 mM TES-KOH pH 6.8, 10 mM MgCl2. 0.5 mM ADP, 0.15 mM ThDP.
In reaction buffer, 1 mM formyl-CoA and 10 mM aldehyde (formaldehyde, acetaldehyde, glycolaldehyde, propionaldehyde, glyceraldehyde, glyoxylate, succinic semialdehyde, benzaldehyde, phenylacetaldehyde, and acetone) was mixed with 5 μM OXCMe or HACLHs. The reaction was stopped after 1 h and products analyzed with the CoA ester method described above.

YciA = molecular target: T2, YciA (Escherichia coli, UniProt P0A8Z0); assay: YciA substrate screen (thioesterase activity towards oxalyl-CoA, formyl-CoA, mandelyl-CoA); format: biochemical, E. coli; conditions: 2 μM YciA, 0.5 mM CoA ester, 30° C., pH 6.8
T2 construct: His-tag (ASKA clone); made in house; host or cells: E. coli BL21 (DE3)
T2 sequence (P0A8Z0 whole entry): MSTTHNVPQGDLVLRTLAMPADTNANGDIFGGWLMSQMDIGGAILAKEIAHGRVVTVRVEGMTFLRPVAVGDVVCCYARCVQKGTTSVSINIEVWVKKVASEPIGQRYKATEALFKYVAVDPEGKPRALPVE
Procedure: 0.5 mM ADP, 0.15 mM ThDP and 25 mM benzaldehyde, 2 μM YciA (A) or no YciA (B). The reaction was started by adding either 0.5 mM formyl-CoA or 0.5 mM oxalyl-CoA or 0.5 mM mandelyl-CoA. Samples were taken after 0, 1, 5 and 30 minutes and analyzed with the LC-MS detection of CoA esters. CoA esters were quantified by comparison to synthetic standards of formyl-CoA, oxalyl-CoA and mandelyl-CoA, respectively. Error bars show standard deviation of two.
Thioesterase activity of YciA towards oxalyl-CoA, formyl-CoA and racemic mandelyl-CoA. […] 0.5 mM ADP, 0.15 mM ThDP and 25 mM benzaldehyde, 2 μM YciA (A) or no YciA (B). The reaction was started by adding either 0.5 mM formyl-CoA or 0.5 mM oxalyl-CoA or 0.5 mM mandelyl-CoA. Samples were taken after 0, 1, 5 and 30 minutes and analyzed with the LC-MS detection of CoA esters. CoA esters were quantified by comparison to synthetic standards of formyl-CoA, oxalyl-CoA and mandelyl-CoA, respectively.

[1] = system: OXS-OXCMe-Y497A-YciA cascade; format: biochemical; conditions: 25 mM aldehyde, 10 mM disodium oxalate, 10 mM ATP, OXS 5 μM, OXCMe-Y497A 5 μM, YciA 2 μM; chiral HPLC
Procedure: Samples were diluted 1:10 in H2O. UPLC-high resolution MS analyses were performed on an Agilent 6550 iFunnel QTOF LC/MS system equipped with an electrospray ionization source to negative ionization mode. The analytes were isocratically chromatographed on a chiral column (100 mm×2.1 mm, particle size 2.7 μm, Poroshell 120 Chiral-T, Agilent) kept at ambient temperature using a mobile phase system comprised of 30:70 20 mM ammonium formate pH 4/methanol at a flow rate of 250 μl/min for 10 min. Samples were held at 10° C. and injection volume was 1 μl. […] MS data were acquired with a scan range of 100-1100 m/z. For quantification the calculated m/z value of [M-H]^− was used to obtain the extracted ion count from the total ion count.
0.5 mM ADP, 0.15 mM ThDP, 0.5 mM CoA, 10 mM ATP, 25 mM benzaldehyde, 5 μM OXS, 5 μM OXC and 2 μM YciA. The reaction was started by adding 10 mM oxalate. As negative controls, YciA, OXS or OXC were omitted in separate reactions. Samples were taken after 0, 0.05, 0.25, 0.66, 1, 2, 3, 22 hours and analyzed with the LC-MS detection of mandelic acid derivatives.
The aldehyde substrate screen of the OXS-OXCMe-Y497A-YciA cascade was carried out as described above (example 13), except that the aromatic aldehydes were prepared as 33 mM stocks in 20 vol % DMSO and diluted to final concentration of 25 mM into the assay. Samples were analyzed with the mandelic acid derivatives method described above. Mandelic acid (3a), 4-chloromandelic acid (3c), 2-chloromandelic acid (3d) and 3-phenyllactic acid (3b) were quantified by comparison to commercial standards.

[2] = system: OXS-OXCMe-YciA cascade with FRC; assay: OXS-OXCMe-Y497A-YciA cascade with FRC (α-hydroxy carboxylic acid from oxalate, one pot); format: biochemical; conditions: 2 μM FRC, 7.6 mM benzaldehyde or phenylacetaldehyde, 10 μM OXCMe-Y497A
Procedure: 0.5 mM ADP, 0.15 mM ThDP, 0.5 mM CoA, 10 mM ATP, 7.6 mM benzaldehyde or phenylacetaldehyde, 2 μM FRC, 2 μM YciA, 10 μM OXCMe-Y497A and 5 μM OXS. The reaction was started by adding 10 mM disodium oxalate. Samples were taken after 0, 15, 30, 60 min and analyzed with the mandelic acid derivatives method described above.
0.5 mM ADP, 0.15 mM ThDP, 0.5 mM CoA, 10 mM ATP, 7.6 mM benzaldehyde or phenylacetaldehyde, 2 μM FRC (Formyl-CoA:oxalate CoA-transferase from Oxalobacter formigenes EC 2.8.3.16), 2 μM YciA, 10 μM OXCMe-Y497A and 5 μM OXS were mixed and the reaction was initiated by the addition of 10 mM disodium oxalate. For the negative control FRC was omitted in a separate reaction. Samples were taken after 0, 15, 30, 60 min and analyzed with the mandelic acid derivatives method described above.

SMILES	HACLHs relative activity (HACLHs)	OXCMe relative activity (OXCMe)	thioesterase activity of YciA towards the CoA ester (YciA)	Conversion [%] [1]	increase of product formation rate by addition of FRC [2]
CCC(O)C(=O)SCCNC(=O)CCNC(=O)[C@H](O)C(C)(C)COP(=O)(O)OP(=O)(O)OC[C@H]1O[C@@H](n2cnc3c(N)ncnc32)[C@H](O)[C@@H]1OP(=O)(O)O (some centres unmarked) [2-hydroxybutyryl-CoA]	100%	5%	–	–	–
CC(C)(COP(=O)(O)OP(=O)(O)OC[C@H]1O[C@@H](n2cnc3c(N)ncnc32)[C@H](O)[C@@H]1OP(=O)(O)O)[C@@H](O)C(=O)NCCC(=O)NCCSC(=O)C(O)c1ccccc1 (some centres unmarked) [mandelyl-CoA]	3%	100%	relatively high	–	–
O=C(O)[C@@H](O)c1ccccc1Cl [2-chloromandelic acid, (S)-2-chloromandelic acid]	–	–	–	93%	–
CC(C)(COP(=O)(O)OP(=O)(O)OC[C@H]1O[C@@H](n2cnc3c(N)ncnc32)[C@H](O)[C@@H]1OP(=O)(O)O)[C@@H](O)C(=O)NCCC(=O)NCCSC(=O)C(O)CCC(=O)O (some centres unmarked) [2-hydroxyglutaryl-CoA]	100%	1%	–	–	–
CC(C)(COP(=O)(O)OP(=O)(O)OC[C@H]1O[C@@H](n2cnc3c(N)ncnc32)[C@H](O)[C@@H]1OP(=O)(O)O)[C@@H](O)C(=O)NCCC(=O)NCCSC=O [formyl-CoA]	–	–	low activity	–	–
O=C(O)C(O)c1ccc(Cl)cc1 (racemic) [4-chloromandelic acid]	–	–	–	57%	–
CC(C)(COP(=O)(O)OP(=O)(O)OCC1OC(n2cnc3c(N)ncnc32)C(O)C1OP(=O)(O)O)C(O)C(=O)NCCC(=O)NCCSC(=O)C(O)Cc1ccccc1 (centres unmarked) [phenyllactyl-CoA]	100%	22%	–	–	–
CC(C)(COP(=O)(O)OP(=O)(O)OC[C@H]1O[C@@H](n2cnc3c(N)ncnc32)[C@H](O)[C@@H]1OP(=O)(O)O)[C@@H](O)C(=O)NCCC(=O)NCCSC(=O)C(=O)O [oxalyl-CoA]	–	–	no activity	–	–
O=C(O)C(O)c1ccccc1 (centres unmarked) [mandelic acid]	–	–	–	75%	1.4 fold
O=C(O)C(O)Cc1ccccc1 (racemic) [3-phenyllactic acid]	–	–	–	58%	2.3 fold
CC(C)(COP(=O)(O)OP(=O)(O)OC[C@H]1O[C@@H](n2cnc3c(N)ncnc32)[C@H](O)[C@@H]1OP(=O)(O)O)[C@@H](O)C(=O)NCCC(=O)NCCSC(=O)C(O)CO (some centres unmarked) [glyceryl-CoA]	100%	1%	–	–	–
CC(C)(COP(=O)(O)OP(=O)(O)OC[C@H]1O[C@@H](n2cnc3c(N)ncnc32)[C@H](O)[C@@H]1OP(=O)(O)O)[C@@H](O)C(=O)NCCC(=O)NCCSC(=O)CO [glycolyl-CoA]	11%	100%	–	–	–
CC(O)C(=O)SCCNC(=O)CCNC(=O)[C@H](O)C(C)(C)COP(=O)(O)OP(=O)(O)OC[C@H]1O[C@@H](n2cnc3c(N)ncnc32)[C@H](O)[C@@H]1OP(=O)(O)O (some centres unmarked) [lactyl-CoA]	100%	74%	–	–	–
